Source: article PMC11181338 (Journal of Medicinal Chemistry, 2024)
Blank lines part the entries; values can stand above or below the compound they belong to.

How the values were obtained:
[1] = In vitro drug metabolism using human liver microsomes; conditions: HLM
[2] = Plasma protein binding; format: in vitro ADME; conditions: 10 μM, 4 h, 37 °C
[3] = Human plasma stability; format: in vitro ADME
[4] = target: T1, human KCNT2 (Homo sapiens, UniProt Q6UVM3); assay: Whole-cell patch-clamp, HEK cells expressing KCNT2; format: cell-based; conditions: KCNT2 currents
T1 sequence (Q6UVM3 1-1135): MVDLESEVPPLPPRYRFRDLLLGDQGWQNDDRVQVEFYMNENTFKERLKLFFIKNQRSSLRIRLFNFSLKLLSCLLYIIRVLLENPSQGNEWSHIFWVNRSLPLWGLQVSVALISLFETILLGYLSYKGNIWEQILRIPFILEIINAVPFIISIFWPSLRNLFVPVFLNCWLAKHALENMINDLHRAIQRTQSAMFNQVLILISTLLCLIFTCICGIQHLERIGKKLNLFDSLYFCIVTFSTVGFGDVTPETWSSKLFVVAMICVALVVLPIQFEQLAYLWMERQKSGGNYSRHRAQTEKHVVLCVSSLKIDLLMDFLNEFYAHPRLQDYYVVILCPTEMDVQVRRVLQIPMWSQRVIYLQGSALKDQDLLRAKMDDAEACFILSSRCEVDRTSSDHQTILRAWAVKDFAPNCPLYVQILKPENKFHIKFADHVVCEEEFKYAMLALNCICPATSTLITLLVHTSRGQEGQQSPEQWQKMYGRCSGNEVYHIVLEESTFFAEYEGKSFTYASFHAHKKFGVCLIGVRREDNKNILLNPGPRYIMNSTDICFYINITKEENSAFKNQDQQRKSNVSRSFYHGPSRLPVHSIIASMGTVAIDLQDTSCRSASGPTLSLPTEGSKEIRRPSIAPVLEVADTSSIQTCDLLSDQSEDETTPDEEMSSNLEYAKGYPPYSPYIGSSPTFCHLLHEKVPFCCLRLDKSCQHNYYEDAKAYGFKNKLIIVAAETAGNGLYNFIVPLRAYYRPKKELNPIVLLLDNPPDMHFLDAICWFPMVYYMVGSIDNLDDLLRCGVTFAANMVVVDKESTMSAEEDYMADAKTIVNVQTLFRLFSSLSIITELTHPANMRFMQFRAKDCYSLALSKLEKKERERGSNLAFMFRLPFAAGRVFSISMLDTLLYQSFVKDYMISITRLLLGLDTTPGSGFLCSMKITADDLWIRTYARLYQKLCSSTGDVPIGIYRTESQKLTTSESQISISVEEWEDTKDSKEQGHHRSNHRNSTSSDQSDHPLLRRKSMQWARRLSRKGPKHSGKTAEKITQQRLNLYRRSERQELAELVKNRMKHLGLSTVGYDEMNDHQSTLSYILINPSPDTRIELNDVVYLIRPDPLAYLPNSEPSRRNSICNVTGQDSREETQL

[5] = target: hERG (Homo sapiens, UniProt Q12809); assay: Whole-cell patch-clamp, CHO cells transiently transfected with hERG; conditions: for hERG-blocking activity: 10 μM; for inhibition at 10 µM: human, pH 7.4, % of hERG inhibition, tail currents at −100 mV
Sequence of hERG (Q12809 whole entry): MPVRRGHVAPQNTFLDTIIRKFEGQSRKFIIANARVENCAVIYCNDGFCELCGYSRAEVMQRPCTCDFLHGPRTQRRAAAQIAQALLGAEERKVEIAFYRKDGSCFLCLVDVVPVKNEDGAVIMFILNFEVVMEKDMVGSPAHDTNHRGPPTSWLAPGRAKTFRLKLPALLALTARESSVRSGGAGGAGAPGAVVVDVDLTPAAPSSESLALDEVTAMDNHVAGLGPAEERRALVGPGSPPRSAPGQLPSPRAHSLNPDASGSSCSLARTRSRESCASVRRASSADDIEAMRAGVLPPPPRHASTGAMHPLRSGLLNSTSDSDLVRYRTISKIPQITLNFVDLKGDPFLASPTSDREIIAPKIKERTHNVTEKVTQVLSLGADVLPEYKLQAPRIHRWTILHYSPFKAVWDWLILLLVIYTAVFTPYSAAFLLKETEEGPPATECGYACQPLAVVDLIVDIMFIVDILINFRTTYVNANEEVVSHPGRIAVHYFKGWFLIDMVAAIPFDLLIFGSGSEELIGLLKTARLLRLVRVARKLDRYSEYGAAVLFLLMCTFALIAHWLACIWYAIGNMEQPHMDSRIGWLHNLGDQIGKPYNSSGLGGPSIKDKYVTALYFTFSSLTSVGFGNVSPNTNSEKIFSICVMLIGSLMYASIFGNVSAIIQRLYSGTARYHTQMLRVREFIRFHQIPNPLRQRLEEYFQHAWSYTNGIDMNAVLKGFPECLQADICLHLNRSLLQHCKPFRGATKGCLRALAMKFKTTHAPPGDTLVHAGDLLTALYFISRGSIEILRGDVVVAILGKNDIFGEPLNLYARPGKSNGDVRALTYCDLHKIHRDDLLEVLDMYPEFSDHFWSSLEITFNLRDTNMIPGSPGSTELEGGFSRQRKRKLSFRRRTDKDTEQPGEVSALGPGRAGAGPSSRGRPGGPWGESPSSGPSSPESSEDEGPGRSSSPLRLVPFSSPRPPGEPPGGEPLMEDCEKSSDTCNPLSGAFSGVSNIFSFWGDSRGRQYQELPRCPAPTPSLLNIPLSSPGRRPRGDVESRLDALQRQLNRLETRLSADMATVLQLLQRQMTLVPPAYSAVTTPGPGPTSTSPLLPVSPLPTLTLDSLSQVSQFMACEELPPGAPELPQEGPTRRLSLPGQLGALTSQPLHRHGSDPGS

[6] = test system: untransfected CHO cells; assay: FluxOR Tl+ fluorescence assay in untransfected CHO cells; format: cell-based, Chinese Hamster; conditions: 10 μM
[7] = target: T2, human KCNT1 (Homo sapiens, UniProt Q5JUK3); assay: FluxOR thallium; format: cell-based
T2 sequence (Q5JUK3 1-1256 isoform Q5JUK3-2): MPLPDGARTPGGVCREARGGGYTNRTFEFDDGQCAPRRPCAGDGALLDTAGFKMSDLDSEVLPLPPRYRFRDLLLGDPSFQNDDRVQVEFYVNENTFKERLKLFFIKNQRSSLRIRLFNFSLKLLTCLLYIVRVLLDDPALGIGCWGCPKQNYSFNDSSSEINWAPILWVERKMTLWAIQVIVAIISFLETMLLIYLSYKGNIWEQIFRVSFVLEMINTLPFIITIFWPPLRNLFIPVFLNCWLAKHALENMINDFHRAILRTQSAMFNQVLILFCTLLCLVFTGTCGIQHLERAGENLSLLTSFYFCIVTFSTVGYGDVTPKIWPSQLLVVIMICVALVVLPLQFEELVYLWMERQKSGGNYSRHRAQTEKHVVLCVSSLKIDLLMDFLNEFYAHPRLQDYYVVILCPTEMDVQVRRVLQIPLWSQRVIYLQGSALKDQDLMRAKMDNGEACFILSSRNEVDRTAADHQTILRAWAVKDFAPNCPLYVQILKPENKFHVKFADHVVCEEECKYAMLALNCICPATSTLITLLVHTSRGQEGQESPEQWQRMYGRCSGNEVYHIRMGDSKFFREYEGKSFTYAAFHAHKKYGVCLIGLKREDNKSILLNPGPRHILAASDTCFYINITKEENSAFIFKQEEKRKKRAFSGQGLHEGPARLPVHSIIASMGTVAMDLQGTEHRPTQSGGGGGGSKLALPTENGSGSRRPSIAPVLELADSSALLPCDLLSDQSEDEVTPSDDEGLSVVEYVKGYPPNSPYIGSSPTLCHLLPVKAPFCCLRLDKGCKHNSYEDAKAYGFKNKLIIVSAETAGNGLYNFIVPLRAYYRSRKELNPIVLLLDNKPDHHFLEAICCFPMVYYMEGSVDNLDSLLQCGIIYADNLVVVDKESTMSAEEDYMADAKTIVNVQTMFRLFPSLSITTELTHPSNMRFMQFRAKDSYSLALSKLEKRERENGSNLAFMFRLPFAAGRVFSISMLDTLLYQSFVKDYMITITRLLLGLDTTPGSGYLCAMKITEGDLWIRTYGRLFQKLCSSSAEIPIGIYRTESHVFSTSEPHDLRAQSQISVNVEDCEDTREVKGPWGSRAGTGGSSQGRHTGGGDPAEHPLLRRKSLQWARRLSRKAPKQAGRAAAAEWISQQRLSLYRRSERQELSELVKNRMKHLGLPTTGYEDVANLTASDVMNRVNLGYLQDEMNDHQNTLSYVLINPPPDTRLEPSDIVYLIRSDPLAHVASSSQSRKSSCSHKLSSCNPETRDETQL

[8] = test system: hERG channels; conditions: cited from earlier work; for % of hERG current blocked: 10 μM
[9] = test system: KCNT2; conditions: up to 10 μM, Tl+ flux assay; cited from earlier work
[10] = target: T2, human KCNT1; assay: Whole-cell patch-clamp, CHO cells transiently transfected with hKCNT1; format: cell-based; conditions: 10 μM
[11] = test system: KCNT1; conditions: read-out: KCNT1 IC50; cited from earlier work
[12] = test system: KCNT1 versus KCNT2 channels; conditions: cited from earlier work

clearance category [1]: low clearance
CLint in vitro ([1]; NADPH + UDPGA): < 1 mL min^–1 kg^–1
binding to plasma proteins [2]: 99%
recovery at 120 min [3]: ≥ 80%
Hill slope (k values) [4]: −0.57 ± 0.09 mV/efold
Compound: O=S(=O)(Nc1ccc2c(c1)CCN2Cc1ccc(C(F)(F)F)cc1C(F)(F)F)C1CCCCC1 [CPK20, N-{1-[2,4-Bis(trifluoromethyl)benzyl]indolin-5-yl}cyclohexanesulfonamide]
hERG-blocking activity [5]: devoid of hERG-blocking activity

EC50 [7]: 4 ± 1.7 µM
slope of the Tl+ fluorescence curve ([7]; 10 μM, 15 min preincubation, KCNT1 stably transfected CHO cells): 0.041 ± 0.006
Compound: CN1CCN(C2=Nc3ccccc3Oc3ccc(Cl)cc32)CC1 [LOX, loxapine]
slope of the Tl+ fluorescence curve [6]: 0.0007 ± 0.0006

Compound: O=C(Nc1cccc(C(F)(F)F)c1)c1ccc2nc(N3C(=O)c4ccccc4C3=O)sc2c1 [BC12]
% of hERG current blocked [8]: 15–20%

Compound: Cc1cc(O)ccc1N/C=C/C(=O)c1ccccc1 [BC13]
% of hERG current blocked [8]: 15–20%

Compound: CCOC(=O)[C@@H]1CS[C@@]2(C(=O)Nc3ccc(Br)cc32)N1C(=O)c1ccc(Cl)cc1 [CPK16, (2′S,4′R)-Ethyl 5-bromo-3′-(4-chlorobenzoyl)-2-oxospiro[indoline-3,2′-thiazolidine]-4′-carboxylate]
hERG-blocking activity [5]: devoid of hERG-blocking activity

Compound: COc1ccc(Cl)cc1NC(=O)CN1CCN(S(=O)(=O)N2CCC(C)CC2)CC1 [VU0606170]
KCNT2 blocking effect [9]: no KCNT2 blocking effect

Compound: Oc1ccc2ccccc2c1CNCCc1c[nH]c2ccccc12 [CPK13, 1-{[(2-(1H-Indol-3-yl)ethyl]amino)methyl}naphthalen-2-ol]
blocking time constant (τon) [10]: 17.7 ± 2.3 s
inhibition at 10 µM [5]: 30 to 40%

Compound: C=C[C@H]1C[N@@]2CC[C@H]1C[C@@H]2[C@@H](O)c1ccnc2ccc(OC)cc12 [QND, quinidine]
IC50 [11]: 80 to 100 µM

effect on the fluorescent signal ([7]; 10 μM, followed by LOX 10 μM): markedly reduced the fluorescent signal
blocking time constant (τon) [10]: 49.0 ± 9.6 s
Compound: CC(C)(C)CNC(=O)Nc1ccc2c(c1)CCN2Cc1ccc(F)cc1 [CPK4, 1-[1-(4-Fluorobenzyl)indolin-5-yl]-3-neopentylurea]
inhibition at 10 µM [5]: 30 to 40%

clearance category [1]: high
CLint in vivo ([1]; NADPH + UDPGA, scaled with human PBSF): < 80 mL min^–1 kg^–1
binding to plasma proteins [2]: 99%
recovery at 120 min [3]: ≥ 80%
Compound: O=C(NCc1ccccc1)[C@H](Cc1c[nH]c2ccccc12)NCc1ccc(Oc2ccccc2)cc1 [CPK18, (S)-N-Benzyl-3-(1H-indol-3-yl)-2-[(4-phenoxybenzyl)amino]propanamide]
hERG-blocking activity [5]: devoid of hERG-blocking activity

Compound: CCCCCCC[N+](CC)(CC)CCCCc1ccc(Cl)cc1 [clofilium]
inhibitory potency KCNT1 versus KCNT2 [12]: stronger inhibitory potency for KCNT1 versus KCNT2 channels
